Assay [1] relates to alcohol induced DNA damage. Description: Comet assay (SCGE) on whole blood, alcohol-induced DNA damage in rats. The assay is classed as in vivo, Male Wistar albino rats. The following applies: single oral dose in 30% alcohol 4 gm/kg, 4 hr data, n = 4. An excerpt: The Single Cell Gel Electrophoresis assay (SCGE, also known as comet assay) is a straightforward and sensitive technique for the detection of DNA damage at the level of the individual eukaryotic cell. It is being used as a standard technique for evaluation of DNA damage/repair, biomonitoring and genotoxicity testing. It involves the encapsulation of cells in a low-melting-point agarose suspension, lysis of the cells in neutral or alkaline (pH>13) conditions, and electrophoresis of the suspended lysed cells. The term “comet” refers to the pattern of DNA migration through the electrophoresis gel, which often resembles a comet (Cheng-Hung Chuang, Miao-Lin Hu. Use of whole blood directly for single-cell gel electrophoresis (comet) assay in vivo and white blood cells for in vitro assay. Mutation Research; 564 (2004) 75-82.).
(§1) Saline/Alcohol (4.0 gm/kg/day, p.o.)/Formulation with alcohol (4.0 gm/kg/day, p.o.) were administered (fed orally by orogastric cannula) for one day. Blood samples were collected before administration of the Saline/Alcohol/Formulation with alcohol and designated as ‘0’ hour, then 2 and 4 hours after the dose. For comet assay one part of the blood was collected in heparinised tube and the other part was allowed to clot to get serum for 8-OHdG assay. Single cell gel electrophoresis (SCGE, the Comet assay) was carried out using whole blood (Cheng-Hung Chuang, Miao-Lin Hu. Use of whole blood directly for single-cell gel electrophoresis (comet) assay in vivo and white blood cells for in vitro assay. Mutation Research; 564 (2004) 75-82.). In short, 15 μl of whole blood was mixed with low melting agarose and fixed on a microscope slide. Those are then lysed by buffer enriched with detergent and high salt. Concomitant electrophoresis at alkaline pH results in unwinding of DNA followed by structures close to comets, when observed by fluorescence microscopy. The intensity of the comet tail relative to the head presents the number of DNA breaks. The probable basis for this is that loops containing a break lose their super coiling and become free to extend toward the anode. This is followed by visual analysis with staining of DNA and calculating fluorescence to determine the extent of DNA damage (Collins, A. R. (2004). “The comet assay for DNA damage and repair: principles, applications, and limitations”. Mol. Biotechnol. 26 (3): 249-261). 8-hydroxy-2-deoxyguanosine was estimated (8-OHdG) by ELISA kit using competitive-ELISA as the method. The microtiter plate is pre-coated with 8-OHdG. 8-OHdG in the sample or standard competes with a fixed amount of 8-OHdG on the solid phase supporter for sites on the Biotinylated Detection Ab specific to 8-OHdG. Excess conjugate and unbound sample or standard were washed from the plate, and Avidin conjugated to Horseradish Peroxidase (HRP) is added to each microplate well. After incubation a TMB substrate solution is added to each well. The enzyme-substrate reaction is terminated by the addition of a sulphuric acid solution and the color change was measured by plate reader at a wavelength of 450 nm±2 nm. The concentration of 8-OHdG in the samples was then determined by comparing the OD of the samples to the standard curve (Szymańska-Chabowska A et al, Evaluation of DNA Damage in People Occupationally Exposed to Arsenic and Some Heavy Metals. Polish J. of Environ. Stud. Vol. 18, No. 6 (2009), 1131-1139).
(§2) % Protection=1−[(T−NS)/(AL−NS)]×100
(§3) T=Mean value of drug treated, NS=Mean value of normal control, AL=Mean value of alcohol alone.
Male Wistar albino rats weighing 150-200 g were procured and randomly divided into groups consisting of four (4) animals in each group. DNA damage was induced by alcohol in rats by oral administration of 30% alcohol (4 gm/kg/p.o.) once (single dose) and this group served as the negative control and treated groups received different formulations. […]

The subject of assay [2] is 8-hydroxy-2-deoxyguanosine (8-OHdG). Description: Serum 8-OHdG ELISA, alcohol-induced DNA damage in rats. It counts as in vivo, Male Wistar albino rats. The note with it: single oral dose in 30% alcohol 4 gm/kg, 4 hr data, n = 4.
Excerpt: In nuclear and mitochondrial DNA, 8-hydroxy-2′-deoxyguanosine (8-OHdG) is one of the predominant forms of free radical-induced oxidative lesions, and is used as a biomarker for oxidative stress. Rat 8-OHdG ELISA kit from Elabscience is used for the assay. (Valavanidis A et al (2009). 8-hydroxy-2′-deoxyguanosine (8-OHdG): A critical biomarker of oxidative stress and carcinogenesis. J Environ Sci Health C Environ Carcinog Ecotoxicol Rev. 27(2):[…]).
as §1, §2, §3
Male Wistar albino rats weighing 150-200 g were procured and randomly divided into groups consisting of four (4) animals in each group. DNA damage was induced by alcohol in rats by oral administration of 30% alcohol (4 gm/kg/p.o.) once (single dose) and this group served as the negative control and treated groups received different formulations.
All drug solutions were prepared in 40% aqueous alcohol, adjusting the pH in the range of 5.0-10.0 for evaluation of alcohol induced DNA damage and protection against it. This solution was further diluted with distilled water to obtain 30% aqueous alcoholic solution and administered orally by gavage to different rats group of step (1a). […]
For orientation: An ELISA detects its analyte on a solid surface through an enzyme-linked reagent.

`OC[C@@H](O)[C@@H](O)CO` [1.2 Ery, D-Erythritol]: the “COMET Protection” value in assay [1] amounted to 18.69%. For the same compound, in assay [2], the “8OHdG Protection” value is reported as 23.08%.
For `OC[C@@H](O)[C@@H](O)CO` [0.8 Ery, D-Erythritol], in that order: 8.25% and 15.98%.
For `OC[C@@H](O)[C@@H](O)[C@H](O)[C@H](O)CO` [1.2 Man, D-Mannitol], in that order: 13.59% and 24.85%.
For `CC1(C)[C@@H](O[C@H]2O[C@H](C(=O)O)[C@@H](O)[C@H](O)[C@H]2O[C@@H]2O[C@H](C(=O)O)[C@@H](O)[C@H](O)[C@H]2O)CC[C@]2(C)[C@H]3C(=O)C=C4[C@@H]5C[C@@](C)(C(=O)O)CC[C@]5(C)CC[C@@]4(C)[C@]3(C)CC[C@@H]12` [0.1 18β-GA, 18β-Glycyrrhizin], in that order: 0.97% and 3.55%.
Turning to `OC[C@@H](O)[C@@H](O)CO` [2.5 Ery, D-Erythritol], the “COMET Protection” value in assay [1] worked out at 34.71%. Also, the “8OHdG Protection” value in assay [2] was 37.28%.
On the same counts, the results for `CC1(C)[C@@H](O[C@H]2O[C@H](C(=O)O)[C@@H](O)[C@H](O)[C@H]2O[C@@H]2O[C@H](C(=O)O)[C@@H](O)[C@H](O)[C@H]2O)CC[C@]2(C)[C@H]3C(=O)C=C4[C@H]5C[C@@](C)(C(=O)O)CC[C@]5(C)CC[C@@]4(C)[C@]3(C)CC[C@@H]12` [0.3 18α-GA, 18α-Glycyrrhizin] are 5.78% and 10.46%.
On the same counts, the results for `CC1(C)[C@@H](O[C@H]2O[C@H](C(=O)O)[C@@H](O)[C@H](O)[C@H]2O[C@@H]2O[C@H](C(=O)O)[C@@H](O)[C@H](O)[C@H]2O)CC[C@]2(C)[C@H]3C(=O)C=C4[C@@H]5C[C@@](C)(C(=O)O)CC[C@]5(C)CC[C@@]4(C)[C@]3(C)CC[C@@H]12` [0.04 18β-GA, 18β-Glycyrrhizin] are 0% and 0%.
On the same counts, the results for `OC[C@@H](O)[C@@H](O)[C@H](O)[C@H](O)CO` [0.8 Man, D-Mannitol] are 9.22% and 14.20%.
Take `CC1(C)[C@@H](O[C@H]2O[C@H](C(=O)O)[C@@H](O)[C@H](O)[C@H]2O[C@@H]2O[C@H](C(=O)O)[C@@H](O)[C@H](O)[C@H]2O)CC[C@]2(C)[C@H]3C(=O)C=C4[C@H]5C[C@@](C)(C(=O)O)CC[C@]5(C)CC[C@@]4(C)[C@]3(C)CC[C@@H]12` [0.1 18α-GA, 18α-Glycyrrhizin]: in assay [1], the “COMET Protection” value is on record as 0.59%. Besides, the “8OHdG Protection” value in assay [2] is given as 4.20%.
On the same counts, the results for `OC[C@@H](O)[C@@H](O)[C@H](O)[C@H](O)CO` [0.5 Man, D-Mannitol] are 5.34% and 7.69%.
Turning to `OC[C@@H](O)[C@@H](O)[C@H](O)[C@H](O)CO` [2.5 Man, D-Mannitol], in assay [1], the “COMET Protection” value was 33.98%. Besides, the “8OHdG Protection” value in assay [2] stood at 40.24%.
On the same counts, the results for `CC1(C)[C@@H](O[C@H]2O[C@H](C(=O)O)[C@@H](O)[C@H](O)[C@H]2O[C@@H]2O[C@H](C(=O)O)[C@@H](O)[C@H](O)[C@H]2O)CC[C@]2(C)[C@H]3C(=O)C=C4[C@@H]5C[C@@](C)(C(=O)O)CC[C@]5(C)CC[C@@]4(C)[C@]3(C)CC[C@@H]12` [0.3 18β-GA, 18β-Glycyrrhizin] are 6.07% and 11.24%.
